The target of one experiment is DNA gyrase (Escherichia coli, UniProt P0AES4+P0AES6). Kind of experiment: Inhibition of Escherichia coli DNA gyrase using biotinylated oligonucleotide as substrate incubated for 30 mins in presence of ATP by fluorescence-based microplate reader assay. Format: protein-complex assay.
Experiment [1] concerns Escherichia coli. Kind of experiment: Antibacterial activity against efflux pump d effect ive Escherichia coli JW5503 harbouring tolC mutant assessed as bacterial growth inhibition at 50 uM incubated for 24 hrs by CLSI protocol based broth microdilution assay relative to control. Format: functional.
In another experiment the test system is Acinetobacter baumannii. Kind of experiment: Antibacterial activity against Acinetobacter baumannii ATCC 19606 assessed as bacterial growth inhibition at 50 uM incubated for 24 hrs by CLSI protocol based broth microdilution assay relative to control. In kind it is functional. The conditions noted are these: ATCC 19606 = CIP 70.34 = JCM 6841.
The next experiment has as its system Staphylococcus aureus. Kind of experiment: Antibacterial activity against Staphylococcus aureus ATCC 29213 assessed as bacterial growth inhibition at 50 uM incubated for 24 hrs by CLSI protocol based broth microdilution assay relative to control. Format: functional.
The test system of experiment [2] is Escherichia coli. Kind of experiment: Antibacterial activity against outer membrane impaired Escherichia coli JD17464 harboring lpxC mutant assessed as bacterial growth inhibition at 50 uM incubated for 24 hrs by CLSI protocol based broth microdilution assay relative to control. Format: functional.
The next experiment has as its system Klebsiella aerogenes. Kind of experiment: Antibacterial activity against Enterobacter aerogenes ATCC 13408 assessed as bacterial growth inhibition at 50 uM incubated for 24 hrs by CLSI protocol based broth microdilution assay relative to control. Format: functional.
Experiment [3] addresses Topoisomerase IV (Staphylococcus aureus) (UniProt P0C1U9+P0C1S7). Kind of experiment: Inhibition of Staphylococcus aureus DNA topoisomerase 4 assessed as residual activity at 1 uM using biotinylated oligonucleotide as substrate incubated for 30 mins in presence of ATP by fluorescence-based microplate reader assay relative to control. Format: protein-complex assay.
Another experiment deals with Pseudomonas aeruginosa. Kind of experiment: Antibacterial activity against Pseudomonas aeruginosa ATCC 27853 assessed as bacterial growth inhibition at 50 uM incubated for 24 hrs by CLSI protocol based broth microdilution assay relative to control. Format: functional.
The subject of another experiment is Enterococcus faecium. Kind of experiment: Antibacterial activity against Enterococcus faecium ATCC 35667 assessed as bacterial growth inhibition at 50 uM incubated for 24 hrs by CLSI protocol based broth microdilution assay relative to control. Format: functional.
Experiment [4] can be described thus: Inhibition of Escherichia coli DNA topoisomerase 4 assessed as residual activity at 1 uM using biotinylated oligonucleotide as substrate incubated for 30 mins in presence of ATP by fluorescence-based microplate reader assay relative to control.
Another experiment relates to Klebsiella pneumoniae. Kind of experiment: Antibacterial activity against Klebsiella pneumoniae ATCC 700603 assessed as bacterial growth inhibition at 50 uM incubated for 24 hrs by CLSI protocol based broth microdilution assay relative to control. In kind it is functional.
Experiment [5] has as its target DNA gyrase (Staphylococcus aureus) (UniProt P0A0K8+P20831). Kind of experiment: Inhibition of Staphylococcus aureus DNA gyrase assessed as residual activity at 1 uM using biotinylated oligonucleotide as substrate incubated for 30 mins in presence of ATP by fluorescence-based microplate reader assay relative to control. In kind it is protein-complex assay.
Experiment [6] has as its system Escherichia coli. Kind of experiment: Antibacterial activity against Escherichia coli ATCC 25922 assessed as bacterial growth inhibition at 50 uM incubated for 24 hrs by CLSI protocol based broth microdilution assay relative to control. Format: functional.
The subject of experiment [7] is Escherichia coli. Kind of experiment: Antibacterial activity against efflux pump d effect ive Escherichia coli JW5503 harbouring tolC mutant assessed as minimum inhibitory concentration required for >=90% inhibition of bacterial growth by CLSI protocol based broth microdilution assay. In kind it is functional.
A further experiment has as its system Enterococcus faecalis. Kind of experiment: Antibacterial activity against Enterococcus faecalis ATCC 29212 assessed as bacterial growth inhibition at 50 uM incubated for 24 hrs by CLSI protocol based broth microdilution assay relative to control. Format: functional.
Experiment [8] deals with DNA gyrase (Escherichia coli) (UniProt P0AES6+P0AES4). Kind of experiment: Inhibition of Escherichia coli DNA gyrase assessed as residual activity at 1 uM using biotinylated oligonucleotide as substrate incubated for 30 mins in presence of ATP by fluorescence-based microplate reader assay relative to control. Format: protein-complex assay.

SMILES strings stand for the structures. In brackets after ≈: the same amount, converted by molar mass.

Sequence of DNA gyrase (Staphylococcus aureus) (P0A0K8 2-644 limits assumed): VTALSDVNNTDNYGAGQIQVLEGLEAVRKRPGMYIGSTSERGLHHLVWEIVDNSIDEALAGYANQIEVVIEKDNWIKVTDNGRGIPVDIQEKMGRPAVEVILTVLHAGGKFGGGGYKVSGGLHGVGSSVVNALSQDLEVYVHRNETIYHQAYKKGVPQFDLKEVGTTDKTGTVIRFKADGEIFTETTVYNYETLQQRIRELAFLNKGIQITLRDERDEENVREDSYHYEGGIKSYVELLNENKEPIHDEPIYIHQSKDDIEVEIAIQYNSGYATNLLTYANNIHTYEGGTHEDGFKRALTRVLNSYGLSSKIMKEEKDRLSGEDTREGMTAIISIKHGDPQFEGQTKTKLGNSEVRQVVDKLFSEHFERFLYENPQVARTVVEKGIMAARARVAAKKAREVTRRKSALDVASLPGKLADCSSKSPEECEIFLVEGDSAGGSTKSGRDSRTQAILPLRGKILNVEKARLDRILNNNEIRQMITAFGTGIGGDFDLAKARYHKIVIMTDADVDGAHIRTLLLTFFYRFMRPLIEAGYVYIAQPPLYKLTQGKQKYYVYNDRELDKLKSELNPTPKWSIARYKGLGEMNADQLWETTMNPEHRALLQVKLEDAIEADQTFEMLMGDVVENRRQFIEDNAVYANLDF
Sequence of DNA gyrase (Staphylococcus aureus) (P20831 whole entry partner): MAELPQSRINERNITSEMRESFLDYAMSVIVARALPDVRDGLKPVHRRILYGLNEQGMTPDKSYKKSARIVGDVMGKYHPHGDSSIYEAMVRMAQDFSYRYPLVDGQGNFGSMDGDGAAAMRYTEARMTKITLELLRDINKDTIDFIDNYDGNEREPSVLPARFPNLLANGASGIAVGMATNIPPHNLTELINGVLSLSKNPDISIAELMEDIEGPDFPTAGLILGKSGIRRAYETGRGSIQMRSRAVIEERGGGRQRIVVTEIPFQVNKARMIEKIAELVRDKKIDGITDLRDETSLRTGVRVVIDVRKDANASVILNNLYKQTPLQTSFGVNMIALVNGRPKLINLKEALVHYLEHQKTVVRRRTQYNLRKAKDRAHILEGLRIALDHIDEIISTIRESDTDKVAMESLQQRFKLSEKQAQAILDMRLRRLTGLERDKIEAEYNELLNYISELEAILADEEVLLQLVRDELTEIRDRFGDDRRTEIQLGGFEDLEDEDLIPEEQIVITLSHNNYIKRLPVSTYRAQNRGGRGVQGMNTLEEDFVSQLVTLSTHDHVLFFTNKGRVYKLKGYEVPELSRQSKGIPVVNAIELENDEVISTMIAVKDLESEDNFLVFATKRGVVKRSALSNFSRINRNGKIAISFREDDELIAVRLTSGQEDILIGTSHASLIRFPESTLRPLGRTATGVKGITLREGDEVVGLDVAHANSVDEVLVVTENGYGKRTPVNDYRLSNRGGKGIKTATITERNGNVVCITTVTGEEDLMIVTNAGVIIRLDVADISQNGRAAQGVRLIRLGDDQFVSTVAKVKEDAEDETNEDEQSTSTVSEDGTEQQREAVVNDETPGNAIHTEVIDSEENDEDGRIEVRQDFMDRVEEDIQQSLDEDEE

With `Cc1[nH]c(C(=O)Nc2ccc(C(=O)N[C@H](C)C(=O)O)cc2OC2CCN(C(=O)OC(C)(C)C)CC2)c(Cl)c1Cl`, the IC50 at DNA gyrase was found to be 71 nM. For the same compound, the inhibition at 50 µM with Escherichia coli [1] was -8%; in the experiment with Acinetobacter baumannii, 15%; in the experiment with Staphylococcus aureus it was -22%; in the experiment with Escherichia coli [2] it was 10%; with Klebsiella aerogenes, -5%; with Pseudomonas aeruginosa, -10%. Further, the inhibition at 50 µM with Enterococcus faecium is 59%; in the experiment on Klebsiella pneumoniae, -13%; in the experiment on Escherichia coli [6], -7%. Moreover, the Activity in experiment [3] amounted to 79%; in [4], 99%; in [5] it was 68%.
As for `COC(=O)[C@@H](C)NC(=O)c1ccc(NC(=O)c2[nH]c(C)c(Cl)c2Cl)c(OC2CCNCC2)c1`, the IC50 on DNA gyrase was determined as 48 nM. Besides, the minimum inhibitory concentration (MIC) in the experiment on Escherichia coli [7] is 6.25 µM (≈ 3.11 µg/mL). Also, the inhibition at 50 µM in the experiment on Escherichia coli [1] was 97%; in the experiment with Acinetobacter baumannii, 17%; in the experiment with Staphylococcus aureus, 8%; in the experiment on Escherichia coli [2] it was 21%; with Klebsiella aerogenes, -2%; with Pseudomonas aeruginosa, 12%. Besides, the inhibition at 50 µM with Enterococcus faecium was 4%; with Klebsiella pneumoniae, -7%; in the experiment on Escherichia coli [6] it was 8%. Besides, the Activity worked out at 94% in experiment [3], 89% in [4] and 49% in [5].
Turning to `O=C(O)CNC(=O)c1ccc(NC(=O)c2cc(Br)c(Br)[nH]2)c(OC2CCNCC2)c1`, the 50% inhibitory concentration (IC50) at DNA gyrase came to 20 nM. Moreover, the inhibition at 50 µM was -17% in the experiment with Escherichia coli [1]; 1% with Acinetobacter baumannii; 3% in the experiment on Staphylococcus aureus; 5% in the experiment with Escherichia coli [2]; 3% with Klebsiella aerogenes; 2% with Pseudomonas aeruginosa. Further, the inhibition at 50 µM was 2% with Enterococcus faecium, 4% in the experiment with Klebsiella pneumoniae and -9% in the experiment with Escherichia coli [6]. Also, the results for the Activity in experiment [3], in experiment [4] and in experiment [5] were 100%, 100% and 67%, respectively.
In the case of `Cc1[nH]c(C(=O)Nc2ccc(C(=O)NS(C)(=O)=O)cc2)c(Cl)c1Cl`, the IC50 at DNA gyrase is 160 nM. Moreover, the inhibition at 50 µM in the experiment with Escherichia coli [1] is 73%; in the experiment with Acinetobacter baumannii it was 6%; with Staphylococcus aureus, 5%; with Escherichia coli [2], 4%; in the experiment on Klebsiella aerogenes it was -8%; with Pseudomonas aeruginosa it was 3%. Also, the inhibition at 50 µM in the experiment on Enterococcus faecium is -3%; in the experiment with Klebsiella pneumoniae it was -2%; in the experiment with Enterococcus faecalis, 16%; in the experiment with Escherichia coli [6], 15%. The Activity in [3] came out at 81%; in [4], 98%; in experiment [5], 55%.
As for `Cc1[nH]c(C(=O)Nc2ccc3[nH]c(C(=O)O)cc3c2)c(Cl)c1Cl`, at DNA gyrase, the IC50 stood at 98 nM. The MIC in the experiment on Escherichia coli [7] amounted to 12.5 µM (≈ 4.4 µg/mL). Further, the inhibition at 50 µM was 99% in the experiment with Escherichia coli [1]; 3% in the experiment on Acinetobacter baumannii; 6% with Staphylococcus aureus; 2% in the experiment with Escherichia coli [2]; 6% in the experiment on Klebsiella aerogenes; -2% in the experiment with Pseudomonas aeruginosa. For the same compound, the inhibition at 50 µM in the experiment with Enterococcus faecium is 20%; with Klebsiella pneumoniae, -2%; with Enterococcus faecalis, 54%; in the experiment on Escherichia coli [6], 2%.
Turning to `Cc1[nH]c(C(=O)Nc2ccc(S(=O)(=O)NCC(=O)O)cc2)c(Cl)c1Cl`, the inhibition at 50 µM is 6% with Escherichia coli [1]; 5% in the experiment on Acinetobacter baumannii; 4% in the experiment with Staphylococcus aureus; 1% with Escherichia coli [2]; 7% in the experiment on Klebsiella aerogenes; -4% in the experiment on Pseudomonas aeruginosa. For the same compound, the inhibition at 50 µM in the experiment with Enterococcus faecium came to 3%; in the experiment with Klebsiella pneumoniae, 7%; in the experiment on Enterococcus faecalis it was 9%; in the experiment with Escherichia coli [6] it was 7%. Moreover, the Activity in [8] worked out at 87%.

These data come from ChEMBL document CHEMBL4665629, “An optimised series of substituted N-phenylpyrrolamides as DNA gyrase B inhibitors” (Eur J Med Chem, 2019).
